Data on one compound can be found in patent US20130225611A1, “Compositions and Methods for Reducing Cancer Cell Proliferation and Modulating Importin-Beta Function” (THE REGENTS OF THE UNIVERSITY OF CALIFORNIA, priority 2011, published 2013).

Assay [1] has as its target T1, interaction between RanGTP and importin-β (Homo sapiens, UniProt Q14974).
T1 construct: made in house; host or cells: BL21 cells (E. coli)
Nature of the assay: CFP-Ran/YFP-importin-β FRET assay. It is filed as binding. As to conditions: spectrofluorimeter retest. On the procedure:
A reverse chemical genetic high-throughput screen (HTS) was performed to identify compounds that affect the interaction between RanGTP and importin-β using a fluorescence resonance energy transfer (FRET)-based assay with cyan fluorescent protein (CFP)-tagged Ran and yellow fluorescent protein (YFP)-tagged importin-β. These proteins bind one another only when CFP-Ran is guanosine triphosphate (GTP)-bound, which can be detected by changes in FRET (FIG. 1A and FIG. 1B). When CFP-Ran is incubated with RCC1, GTP, and YFP-importin-β, and the mixture is excited with 435 nm fluorescence in a fluorometer, a strong FRET signal is generated, as indicated by a decrease in the fluorescence intensity at 475 nm (the emission wavelength of CFP) and an increase in the fluorescence intensity at 525 nm (the emission wavelength of YFP). No FRET signal is generated if GDP is substituted for GTP, and nucleotide-specific interaction could also be observed biochemically, as S-tagged YFP-importin-β pulls CFP-Ran out of solution only in the presence of GTP. […]
The following reaction buffer was used for all FRET assays, including the high-throughput screen: 1× phosphate buffered saline (PBS), 5% glycerol, 2 mM MgCl2, 1 mM dithiothreitol (DTT), 0.01% NP-40. […] The reaction was excited using a Fluorolog 3 spectrofluorometer with 435 nm fluorescence and the emission was read between 460 nm and 550 nm. […]

Assay [2] deals with T2, CFP-Ran and YFP-importin-β (Homo sapiens, UniProt Q14974).
T2 construct: made in house; host or cells: BL21 cells (E. coli)
The assay is described as follows: pull-down of CFP-Ran with S-tagged YFP-importin-β. It is filed as binding. As to conditions: importazole 200 μM. As for the experimental part: For pulldown experiments to detect interaction between CFP-Ran and YFP-importin-β, all reactions were performed in buffer consisting of PBS+2 mM MgCl2, 5% glycerol, 0.01% NP-40, and 1.0 mM DTT. Reaction buffer was combined with the following components in this order: CFP-Ran, RCC1, BSA, GDP or GTP, importazole or 100% DMSO, and YFP-importin-β, yielding the following final concentrations: CFP-Ran: 2.5 nM, RCC1: 20 nM, BSA: 0.1 mg/ml, GDP or GTP: 200 μM, importazole: 200 μM, […]: 5.0 nM. Reactions were incubated for 10 min at room temperature, […] of S-protein agarose was added, and then incubated for an additional 30 min on a rotator before pelleting the agarose at 3,000 rpm for 1 min. The supernatant was removed followed by three washes with […] reaction buffer. The S-protein pellet was resuspended in 15 μl of sodium dodecyl sulfate-polyacrylamide gel electrophoresis (SDS PAGE) sample buffer and boiled briefly. After spinning down the S-protein pellet, 10 μl of the sample was analyzed by SDS PAGE.

For another assay, the target named is T3, importin-β (Homo sapiens, UniProt Q14974).
T3 construct: made in house; host or cells: BL21 cells (E. coli)
T3 sequence (Q14974 whole entry): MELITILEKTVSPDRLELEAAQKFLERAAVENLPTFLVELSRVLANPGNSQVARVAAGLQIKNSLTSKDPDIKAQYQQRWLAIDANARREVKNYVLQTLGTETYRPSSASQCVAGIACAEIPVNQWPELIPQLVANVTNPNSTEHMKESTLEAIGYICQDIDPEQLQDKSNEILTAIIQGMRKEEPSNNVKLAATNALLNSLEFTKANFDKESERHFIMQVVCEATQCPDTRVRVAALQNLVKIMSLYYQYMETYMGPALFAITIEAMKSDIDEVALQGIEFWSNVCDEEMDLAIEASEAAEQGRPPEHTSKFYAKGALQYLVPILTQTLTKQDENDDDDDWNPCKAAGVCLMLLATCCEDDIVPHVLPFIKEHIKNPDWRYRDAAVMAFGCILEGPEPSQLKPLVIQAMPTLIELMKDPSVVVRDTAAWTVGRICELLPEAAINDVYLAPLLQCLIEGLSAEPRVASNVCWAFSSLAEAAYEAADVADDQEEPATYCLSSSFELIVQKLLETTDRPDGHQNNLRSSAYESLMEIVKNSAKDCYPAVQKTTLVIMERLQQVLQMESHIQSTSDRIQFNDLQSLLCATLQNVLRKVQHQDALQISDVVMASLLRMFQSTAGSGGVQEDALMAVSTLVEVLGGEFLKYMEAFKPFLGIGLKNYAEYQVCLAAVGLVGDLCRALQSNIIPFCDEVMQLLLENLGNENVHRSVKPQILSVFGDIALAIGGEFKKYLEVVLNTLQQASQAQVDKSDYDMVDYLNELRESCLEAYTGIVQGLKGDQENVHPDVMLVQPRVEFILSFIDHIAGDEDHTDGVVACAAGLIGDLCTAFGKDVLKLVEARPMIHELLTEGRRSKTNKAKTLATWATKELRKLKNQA
The assay is described as follows: fluorescent thermal shift assay (Sypro Orange), importin-β. Type of assay: binding. The settings on record: 2 μM importin-β, 50 μM compound. As for the experimental part:
Experiments were performed using Applied Biosystems StepOnePlus™ Real-Time polymerase chain reaction (RT-PCR) System. Protein stocks were diluted in PBS and added 70% v/v to a Microamp® Fast 96-well Reaction Plate and maintained on ice. Compounds (importazole and control compound 3016) were then added at 30% v/v in 3% DMSO. Freshly prepared 100× water based-dilution of Sypro® Orange Protein Gel Stain was then added at 1% v/v to reach a final reaction volume of 20 μl. Samples were mixed by gentle pipetting. After sealing the plates with Microamp™ Optical Adhesive Film, the plate was subjected to a heating cycle composed of a 10 sec prewarming step at 25° C. and a gradient between 25° C. and 95° C. with a 0.3° C. ramp. Data was analyzed using the StepOnePlus™ Software v2.1.

For assay [3], the system named is nuclear import mediated by transportin. Nature of the assay: nuclear import of M9-YFP in permeabilized HeLa cells. It is filed as cell-based, human. As to conditions: permeabilized HeLa cells plus Xenopus egg extract.

Consider `CC(Nc1nc(N2CCCC2)nc2ccccc12)c1ccccc1` (stereo not shown) [importazole, (1-phenyl-ethyl)-(2-pyrrolidin-1-yl-quinazolin-4-yl)-amine], for which, in assay [1], the “effect on FRET signal generated by CFP-Ran and YFP-importin-β” value is listed as “reproducibly disrupted the FRET signal”. Moreover, in assay [2], the “effect on binding of CFP-RanGTP and YFP-importin-β in pull-down assays” value was “did not obviously affect the binding of the two proteins”. Moreover, the “reduction of melting temperature of importin-β” value on importin-β was 1.72+/−0.27 °C. In assay [3], the “transportin-mediated nuclear import (M9-YFP)” value is “did not block nuclear import”.
